Laboratory results from patent publication US9221827B2, “Antimicrobial compounds and methods of making and using the same” (Melinta Therapeutics, Inc., priority 2011, dated 2015).

Tested on: Escherichia coli strain ATCC25922
Experiment: standard microdilution assay to determine minimum inhibitory concentrations (MICs)
Format: cell-based
How it was run: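 Broth microdilution per CLSI (M7-A8/M100-S20), 100 μl final volume, with reference-strain quality control; MIC is the lowest inhibitory concentration. Scored "+"/"−" against a 16 micrograms/ml cutoff, "N/A" where unavailable.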

[1] = Escherichia coli strain ATCC25922, microdilution
[2] = Escherichia coli strain ATCC25922, standard microdilution assay

## N=C(N)NCCCNCc1ccc(-n2cc3cc(-c4cc(CC5CC(N)C5)cc(C(F)(F)F)c4)[nH]c3nc2=O)cc1 (stereo not shown) [Compound 324]
[1]
  E. coli ATCC25922 MIC: + (a “+” indicates that the compound has an MIC value of 16 micrograms/ml or less)

## N=C(N)NCCCNCc1ccc(-n2cc3cc(-c4cc(COCCN)cc(OC(F)(F)F)c4)[nH]c3nc2=O)cc1 [Compound 36]
[1]
  E. coli ATCC25922 MIC: + (a “+” indicates that the compound has an MIC value of 16 micrograms/ml or less)

## CC(N)CCCc1cc(OC(F)F)c(F)c(-c2cc3cn(-c4ccc(CNCCCNC(=N)N)cc4)c(=O)nc3[nH]2)c1 (stereo not shown) [Compound 297]
[1]
  E. coli ATCC25922 MIC: + (a “+” indicates that the compound has an MIC value of 16 micrograms/ml or less)

## N=C(N)NCCCNCc1ccc(-n2cc3cc(-c4cc(CC[C@@H](O)CN)cc(OC(F)(F)F)c4)[nH]c3nc2=O)cc1 [Compound 238]
[1]
  E. coli ATCC25922 MIC: + (a “+” indicates that the compound has an MIC value of 16 micrograms/ml or less)

## CC(CCN)Cc1cc(Cl)c(F)c(-c2cc3cn(-c4ccc(CNCCCNC(=N)N)cc4)c(=O)nc3[nH]2)c1 (stereo not shown) [Compound 132]
[1]
  E. coli ATCC25922 MIC: + (a “+” indicates that the compound has an MIC value of 16 micrograms/ml or less)

## CC[C@H](NCCCNC(=N)N)c1ccc(-n2cc3cc(-c4cc(CCC[C@H](C)N)cc(SC(F)(F)F)c4)[nH]c3nc2=O)cc1 [Compound 407]
[2]
  E. coli ATCC25922 MIC: + (a “+” indicates that the compound has an MIC value of 16 micrograms/ml or less)

## NCCCCc1cc(OC(F)(F)F)cc(-c2cc3cn(-c4ccc(CNCCCN=C(N)N)cc4F)c(=O)nc3[nH]2)c1 [Compound 90]
[1]
  E. coli ATCC25922 MIC: + (a “+” indicates that the compound has an MIC value of 16 micrograms/ml or less)

## CC(C)c1cc(CCC[C@H](C)N)cc(-c2cc3cn(-c4ccc(CNCCCNC(=N)N)cc4)c(=O)nc3[nH]2)c1F [Compound 408]
[2]
  E. coli ATCC25922 MIC: + (a “+” indicates that the compound has an MIC value of 16 micrograms/ml or less)

## CC[C@H](N)CCCc1cc(Cl)c(F)c(-c2cc3cn(-c4ccc(CNCCCNC(=N)N)cc4)c(=O)nc3[nH]2)c1 [Compound 341]
[2]
  E. coli ATCC25922 MIC: + (a “+” indicates that the compound has an MIC value of 16 micrograms/ml or less)

## N=C(N)NCCCNCc1ccc(-n2cc3cc(-c4cc(C5CCC(CN)CC5)cc(C(F)(F)F)c4)[nH]c3nc2=O)cc1 (mixture of isomers) [Compound 429]
[2]
  E. coli ATCC25922 MIC: + (a “+” indicates that the compound has an MIC value of 16 micrograms/ml or less)

## CC(CN)Cc1cc(OC(F)(F)F)cc(-c2cc3cn(-c4ccc(CNCCCNC(=N)N)cc4)c(=O)nc3[nH]2)c1 (stereo not shown) [Compound 241]
[1]
  E. coli ATCC25922 MIC: + (a “+” indicates that the compound has an MIC value of 16 micrograms/ml or less)

## C[C@@H](CN)CN1C[C@H](NC(=O)Nc2nc(=O)c(-c3ccc(CNCCCNC(=N)N)cc3)c[nH]2)C[C@H]1CNCCC1CC1 [Compound 153]
[1]
  E. coli ATCC25922 MIC: + (a “+” indicates that the compound has an MIC value of 16 micrograms/ml or less)

## CCc1cc(CCCCN)cc(-c2cc3cn(-c4ccc(CNCCCNC(=N)N)cc4)c(=O)nc3[nH]2)c1C(F)(F)F [Compound 233]
[1]
  E. coli ATCC25922 MIC: + (a “+” indicates that the compound has an MIC value of 16 micrograms/ml or less)

## C[C@H](NCCCNC(=N)N)c1ccc(-n2cc3cc(-c4cc(CC[C@@H](C)N)cc(SC(F)(F)F)c4)[nH]c3nc2=O)cc1 [Compound 398]
[2]
  E. coli ATCC25922 MIC: + (a “+” indicates that the compound has an MIC value of 16 micrograms/ml or less)

## C[C@H](NCCCNC(=N)N)c1ccc(-n2cc3cc(-c4cc(CCC5(CN)CC5)cc(SC(F)(F)F)c4)[nH]c3nc2=O)cc1 [Compound 310]
[1]
  E. coli ATCC25922 MIC: + (a “+” indicates that the compound has an MIC value of 16 micrograms/ml or less)

## Cc1cc(CCCCN)cc(-c2cc3cn(-c4ccc(CNCCCNC(=N)N)cc4)c(=O)nc3[nH]2)c1F [Compound 133]
[1]
  E. coli ATCC25922 MIC: + (a “+” indicates that the compound has an MIC value of 16 micrograms/ml or less)

## Cc1cc(CCCC(C)N)cc(-c2cc3cn(-c4ccc(CNCCCNC(=N)N)cc4)c(=O)nc3[nH]2)c1F (stereo not shown) [Compound 219]
[1]
  E. coli ATCC25922 MIC: + (a “+” indicates that the compound has an MIC value of 16 micrograms/ml or less)

## Cc1c(-c2cc3cn(-c4ccc(CNCCCNC(=N)N)cc4)c(=O)nc3[nH]2)cc(CCCCN)cc1C(F)(F)F [Compound 212]
[1]
  E. coli ATCC25922 MIC: + (a “+” indicates that the compound has an MIC value of 16 micrograms/ml or less)

## N=C(N)NCCCNCc1ccc(-n2cc3cc(-c4cc(CCCCN)cc(C5CCC5)c4)[nH]c3nc2=O)cc1 [Compound 40]
[1]
  E. coli ATCC25922 MIC: + (a “+” indicates that the compound has an MIC value of 16 micrograms/ml or less)

## CC(N)CCc1cc(Cl)c(F)c(-c2cc3cn(-c4ccc(CNCCCNC(=N)N)cc4)c(=O)nc3[nH]2)c1 (stereo not shown) [Compound 257]
[1]
  E. coli ATCC25922 MIC: + (a “+” indicates that the compound has an MIC value of 16 micrograms/ml or less)

## Cc1ccc(CCCCN)cc1-c1cc2cn(-c3ccc(CNCCCNC(=N)N)cc3)c(=O)nc2[nH]1 [Compound 57]
[1]
  E. coli ATCC25922 MIC: + (a “+” indicates that the compound has an MIC value of 16 micrograms/ml or less)

## COC(=O)C(NCCCNC(=N)N)c1ccc(-n2cc3cc(-c4cc(CCCC(C)N)cc(C(F)(F)F)c4)[nH]c3nc2=O)cc1 (stereo not shown) [Compound 496]
[1]
  E. coli ATCC25922 MIC: + (a “+” indicates that the compound has an MIC value of 16 micrograms/ml or less)

## CCC(N)COC(C)c1cc(-c2cc3cn(-c4ccc(CNCCCNC(=N)N)cc4)c(=O)nc3[nH]2)cc(C(F)(F)F)c1 (stereo not shown) [Compound 479]
[1]
  E. coli ATCC25922 MIC: + (a “+” indicates that the compound has an MIC value of 16 micrograms/ml or less)

## N=C(N)NCCCNCc1ccc(-n2cc3cc(-c4cc(OC(F)(F)F)cc(C5CCC(CN)O5)c4)[nH]c3nc2=O)cc1 (stereo not shown) [Compound 435]
[2]
  E. coli ATCC25922 MIC: + (a “+” indicates that the compound has an MIC value of 16 micrograms/ml or less)

## C[C@H](N)c1ccc(-n2cc3cc(-c4cc(CCCC(C)(C)N)cc(Cl)c4F)[nH]c3nc2=O)cc1 [Compound 373]
[2]
  E. coli ATCC25922 MIC: − (a “−” indicates that the compound has an MIC value greater than 16 micrograms/ml)

## N=C(N)NCCCNCc1ccc(-n2cc3cc(-c4cc(CCCCN)cc(OC(F)(F)F)c4)[nH]c3nc2=O)cc1F [Compound 39]
[1]
  E. coli ATCC25922 MIC: + (a “+” indicates that the compound has an MIC value of 16 micrograms/ml or less)

## CCc1cc(CCC[C@H](C)N)nc(-c2cc3cn(-c4ccc([C@H](C)NCCCNC(=N)N)cc4)c(=O)nc3[nH]2)c1 [Compound 388]
[2]
  E. coli ATCC25922 MIC: + (a “+” indicates that the compound has an MIC value of 16 micrograms/ml or less)

## NC(N)=NCCCNCc1ccc(-n2cc3cc(-c4cc(CCCO)ccc4Cl)[nH]c3nc2=O)cc1 [Compound 82]
[1]
  E. coli ATCC25922 MIC: + (a “+” indicates that the compound has an MIC value of 16 micrograms/ml or less)

## N=C(N)NCCCNCc1ccc(-n2cc3cc(-c4cc(CCCN)cc(OC(F)(F)F)c4Cl)[nH]c3nc2=O)cc1 [Compound 225]
[1]
  E. coli ATCC25922 MIC: + (a “+” indicates that the compound has an MIC value of 16 micrograms/ml or less)

## CC(C)Cc1cc(CCCC(C)N)cc(-c2cc3cn(-c4ccc(C(C)NCCCNC(=N)N)cc4)c(=O)nc3[nH]2)c1 (stereo not shown) [Compound 385]
[2]
  E. coli ATCC25922 MIC: + (a “+” indicates that the compound has an MIC value of 16 micrograms/ml or less)

## CC(N)CCCc1cc(-c2cc3cn(-c4ccc(CNCCCNC(=N)N)cc4)c(=O)nc3[nH]2)cc(C(F)(F)F)c1 (stereo not shown) [Compound 27]
[1]
  E. coli ATCC25922 MIC: + (a “+” indicates that the compound has an MIC value of 16 micrograms/ml or less)
